Measured values reported in patent US20240343699A1, “DERIVATIVES OF SUBSTITUTED MORPHOLINES AND USES THEREOF” (Supernus Pharmaceuticals, Inc., priority 2023, published 2024).
Entries after “also recorded” stand apart in the source; their conditions may differ.

Legend:
[1] = Stability in human whole blood, red blood cells and plasma (with/without protease inhibitors, pH 6.0); assay type: in vitro ADME
Experimental: (§1) Stability of Test Articles at Different pH Values. 10 mM stock solutions of COMPOUND A were prepared in DMSO. From this stock solution, a single concentration in a 10 μL aliquot was added to three fluid matrices: SGF at pH 2.0 (gastric), SIF at pH 6.0 (upper intestine), and PBS at 7.4 (systemic). The final volume was 1 mL (0.1 mM). The preparations were then incubated at 37° C. and samples were collected at 0, 15, 30, 60, and 120 min for analysis of parent material by LC/MS/MS. The collected sample was quenched in acetonitrile/0.1% formic acid mixture. Red Blood Cell (RBC): Human and rat blood were centrifuged to separate out red blood cells at […] for 15 min. The upper plasma level was aspirated with a micropipette and placed in a bleach solution for disposal. The RBC pellet was resuspended in sterile isotonic saline. The pellet was gently resuspended by rocking the tube. The sample was then centrifuged again to collect the RBC pellet and then resuspended and washed one more time following the same procedure. A total of three was done. Following the last wash and centrifugation, the RBCs were resuspended with PBS; and mixed by inversion. Aliquots of the resuspended and washed RBCs were then placed into 4 reaction tubes. These tubes were centrifuged to collect the RBCs. The fluid level was marked on each tube, then the supernatant was aspirated off and the cells resuspended with room temperature PBS pH 7.4 to the original mark. An aliquot of the RBC suspension was added to four sterile tubes containing PBS pH 7.4 at room temperature.
(§2) Stability in Human and Rat Red Blood cells and Hemolysis. […] After centrifugation, 70 μL of supernatant (without disturbing the pellet) was transferred to a clean and clear polystyrene flat bottomed 96-well plate and the absorbance of the sample at a single wavelength was measured using a Bio Tech Synergy Hl Plate Reader at a wavelength of 410 nm. […] Stability was measured by measuring loss of parent compound using LC/MS/MS.

[2] = Stability in rat whole blood, red blood cells and plasma; assay type: in vitro ADME; details: 0.5 mM, 0-120 min
Experimental: (§3) Stability of Test Articles at Different pH Values. 10 mM stock solutions of COMPOUND A were prepared in DMSO. From this stock solution, a single concentration in a 10 μL aliquot was added to three fluid matrices: SGF at pH 2.0 (gastric), SIF at pH 6.0 (upper intestine), and PBS at 7.4 (systemic). The final volume was 1 mL (0.1 mM). The preparations were then incubated at 37° C. and samples were collected at 0, 15, 30, 60, and 120 min for analysis of parent material by LC/MS/MS. The collected sample was quenched in acetonitrile/0.1% formic acid mixture. Red Blood Cell (RBC): Human and rat blood were centrifuged to separate out red blood cells at […] for 15 min. The upper plasma level was aspirated with a micropipette and placed in a bleach solution for disposal. The RBC pellet was resuspended in sterile isotonic saline. The pellet was gently resuspended by rocking the tube. […]
as §2

[3] = system: human red blood cells; test: Hemolysis in human blood; assay type: cell-based
Experimental: as §3, §2

[4] = system: rat red blood cells; test: Hemolysis in rat blood; assay type: cell-based
Experimental: as §1, §2

[5] = Stability in human gut microbiota (fecal matter); assay type: in vitro ADME; details: pH 6 and 7.4, all time points
Experimental: Stability in Rat and Human Gut Microbiota. Rat fecal material was obtained and weighed. One capsule of the raw probiotics was crushed and weighed prior to use. The weighed samples were then solubilized in PBS at pH 6.0 and 7.4 to extract microorganisms. The samples were centrifuged at 18,000×g for 10 min to remove particulates and the supernatant was used to evaluate test article stability. An aliquot (50 μL) of the COMPOUND A stock solution was added to the fecal extract (final concentration 0.5 mM) and allowed to incubate at 37° C. Aliquots were collected at 0, 15, 30, 60, and 120 min and analyzed by LC/MS/MS to determine stability of the parent molecule. The collected sample was quenched in acetonitrile/0.1% formic acid mixture.

[6] = system: recognition memory; test: Spontaneous novel object recognition (NOR), 48 hr retention interval; assay type: in vivo, male Wistar rats; details: 48 hr delay
[7] = PK after single PO administration of COMPOUND A
[8] = in vivo; details: beagle, dog, plasma, po, 80 mg/kg
[9] = system: prepulse inhibition; test: Prepulse inhibition (PPI) of the auditory startle response, apomorphine-impairment model
[10] = COMPOUND C 60 mg/kg PO + apomorphine
[11] = COMPOUND C 90 mg/kg PO + apomorphine
[12] = COMPOUND C 120 mg/kg PO + apomorphine

CCOc1ccccc1OC[C@@H]1CN(C(=O)OC(C)OC(=O)[C@@H](N)C(C)C)CCO1 (stereo partly drawn) [COMPOUND A]
stability in human plasma at pH 6.0 ([1]; 0-30 min): slower degradation compared to the other matrices | stability in human plasma with protease inhibitor cocktail ([1]; 0-30 min): time-dependent decrease in the amount of parent compound present | stability in human red blood cells and whole blood ([1]; 0.5 mM, 0-120 min): time-dependent decrease in the amount of parent compound present | stability in rat red blood cells, plasma and whole blood [2]: time-dependent decrease in the amount of parent compound present | hemolysis (% RBC lysis) ([3]; human blood, 25, 50, 100 μM, 1 hr): no detectable hemolysis | EC50 (% RBC lysis) ([3]; human blood, 60 min exposure): outside the concentration range tested | hemolysis (% RBC lysis) ([4]; rat blood, 25, 50, 100 μM, 1 hr): no detectable hemolysis | EC50 (% RBC lysis) ([4]; rat blood, 60 min exposure): outside the concentration range tested | amount of parent compound in human fecal matter [5]: ~100% | preference for the novel object (exploration times) ([6]; COMPOUND A 15 mg/kg p.o.): non-significant trend toward a preference for the novel object | preference for the novel object (exploration times) ([6]; COMPOUND A 30, 60, and 90 mg/kg p.o.): significant (p<0.05) preference for the novel object | d2 ratios vs vehicle-control ([6]; COMPOUND A 60 and 90 mg/kg p.o.): significant difference (p<0.05) from the vehicle-control response | Clinical observation (tolerability) ([7]; 60 or 120 mg/kg PO): well tolerated | enantiomer R(+)-VLX in plasma ([7]; COMPOUND A 60 or 120 mg/kg PO, LLOQ 1.5 ng/mL): not detectable at most time points | plasma concentration of the derivative itself ([7]; COMPOUND A 60 or 120 mg/kg PO, LLOQ 3 ng/mL): not detectable; also recorded: below LLOQ in all the samples collected

CCOc1ccccc1OC[C@@H]1CN(C(=O)OC(OC(=O)[C@H](N)C(C)C)C(C)C)CCO1 (stereo partly drawn) [COMPOUND C]
AUC(0-inf) ([8]; female): 591 ng·h/mL | AUC(0-t) ([8]; female): 572 ng·h/mL | Cmax ([8]; female): 308 ng/mL | MRT inf ([8]; female): 4.78 h | MRT last ([8]; female): 3.16 h | Tmax ([8]; female): 30 min | half-life ([8]; female): 284 min | AUC(0-inf) ([8]; male): 1200 ng·h/mL | AUC(0-t) ([8]; male): 1190 ng·h/mL | Cmax ([8]; male): 775 ng/mL | MRT inf ([8]; male): 2.8 h | MRT last ([8]; male): 2.58 h | Tmax ([8]; male): 30 min | half-life ([8]; male): 176 min | % PPI (mean ± SEM) [9, 10]: 43.6 ± 5.0% | Acoustic Startle (AU) (mean ± SEM) [9, 10]: 1719.1 ± 211.2 AU | % PPI (mean ± SEM) [9, 11]: 37.2 ± 5.6% | Acoustic Startle (AU) (mean ± SEM) [9, 11]: 1579.9 ± 171.1 AU | % PPI (mean ± SEM) [9, 12]: 43.7 ± 3.7% | Acoustic Startle (AU) (mean ± SEM) [9, 12]: 1856.8 ± 245.8 AU | attenuation of the effects of apomorphine on PPI ([9]; COMPOUND C 60, 90, 120 mg/kg PO): None of the doses of COMPOUND C were associated with a statistically significant attenuation
